Source: publication PMC10296061, “Inhibition of the Mitochondrial Carnitine/Acylcarnitine Carrier by Itaconate through Irreversible Binding to Cysteine 136: Possible Pathophysiological Implications” (Biomolecules, 2023)
Changes are numbered by the printed parent chain.

Columns and labels:
Format in all cases: biochemical
[1] = target: T1, native mitochondrial carnitine/acylcarnitine carrier (CAC) (Rattus norvegicus, UniProt P97521); assay: [3H]carnitine/carnitine antiport in proteoliposomes reconstituted with native CAC from rat liver mitochondria; settings: 10 min incubation, 0.1 mM [3H]carnitine, pH 7.0, read-out: IC50 for itaconate inhibition of [3H]carnitine/carnitine antiport
T1 construct: from tissue; host or cells: rat liver mitochondria
T1 sequence (P97521 1-301): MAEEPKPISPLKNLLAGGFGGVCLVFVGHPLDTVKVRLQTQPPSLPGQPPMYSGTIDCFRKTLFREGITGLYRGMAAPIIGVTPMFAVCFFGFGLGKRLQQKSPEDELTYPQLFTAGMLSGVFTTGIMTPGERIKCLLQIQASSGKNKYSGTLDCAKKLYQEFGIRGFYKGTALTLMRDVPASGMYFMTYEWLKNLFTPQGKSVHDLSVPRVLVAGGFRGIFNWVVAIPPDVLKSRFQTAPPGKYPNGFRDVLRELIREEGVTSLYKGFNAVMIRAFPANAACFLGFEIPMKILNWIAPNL
From the text: As previously described, recombinant CAC (WT and mutants) and ORC1 proteins were used for proteoliposome formation. For experiments with native CAC, ORC1, or ANT proteins, rat liver mitochondria, or HeLa cell mitochondria, the latter for the CAC alone, were first purified using the standard procedure of cell disruption and differential centrifugation. Then proteins were extracted using 3% Triton X-100 and reconstituted as described for the recombinant proteins. The concentration of intraliposomal carnitine and ornithine was 15 mM and 30 mM, respectively, in all samples.
To test the transport activity of the CAC, 550 μL of proteoliposomes was passed through a Sephadex G-75 column to remove the external substrate. Six hundred μL of the turbid eluate was collected, divided into samples of 100 μL each, and used for transport measurement by the inhibitor-stop method. Transport was started by adding 0.1 mM [^3H]carnitine ([^3H]ornitine or [^3H]ATP) to proteoliposome samples and stopped with 1.5 mM NEM (N-ethylmaleimide) at the indicated time interval. […] Transport rates were measured in 10 min, i.e., within the initial linear range of the time course, at 25 °C. After terminating the transport reaction, the external substrate was removed by chromatography on the Sephadex G-75 column, and the intraliposomal radioactivity was measured. […]

[2] = target: T2, CAC C23V/C58V/C89S/C155V/C283S mutant (Rattus norvegicus, UniProt P97521, C155V/C23V/C283S/C58V/C89S); assay: Transport assay in proteoliposomes, CAC mutant containing the sole C136; settings: read-out: IC50 for itaconate inhibition
T2 construct: made in house; host or cells: E. coli C0214
T2 sequence (P97521 1-301 C23V/C58V/C89S/C155V/C283S): T1 sequence (P97521 1-301) with C23V, C58V, C89S, C155V, C283S
Procedure: (§1) As previously described, the pMW7-WTratCAC recombinant plasmid was used for over-expressing the rat CAC [22]. The overlap extension method was used to introduce the mutations; in the main time, NdeI and HindIII restriction sites were also added using appropriate primers. The PCR products were purified by the QIAEX II Gel Extraction Kit (QIAGEN) and digested with NdeI and HindIII and then ligated into the pMW7. All mutations were verified by DNA sequencing. The resulting plasmid constructs were transformed into E. coli C0214. Overexpression, inclusion body fraction preparation, and purification of the CAC proteins were performed as previously described. […]
(§2) To test the transport activity of the CAC, 550 μL of proteoliposomes was passed through a Sephadex G-75 column to remove the external substrate. […] Transport rates were measured in 10 min, i.e., within the initial linear range of the time course, at 25 °C. After terminating the transport reaction, the external substrate was removed by chromatography on the Sephadex G-75 column, and the intraliposomal radioactivity was measured. […]
(§3) Figure 3 Identification of residue responsible for itaconate inhibition. […] Transport activity of the WT (○), C136A (●), C155A (Δ), C23V/C58V/C89S/C155V/C283S (▲), and C23V/C58V/C89S/C136V/C155V/C283S (□) was measured by adding 0.1 mM [^3H]carnitine after treatment by itaconate at the indicated concentrations. […]

[3] = target: T3, CAC C136A mutant (Rattus norvegicus, UniProt P97521, C136A); assay: Transport assay in proteoliposomes, CAC mutant C136A; settings: mutant lacking C136; read-out: IC50 for itaconate inhibition
T3 construct: made in house; host or cells: E. coli C0214
T3 sequence (P97521 1-301 C136A): T1 sequence (P97521 1-301) with C136A
Procedure: as §1, §2, §3

C=C(CC(=O)O)C(=O)O [itaconate]
IC50 [1]: 11 ± 4.6 mM
IC50 [2]: 4 ± 0.14 mM
IC50 [3]: 15 ± 2.1 mM
